In article PMC9031249, “New 3-Acyl Tetramic Acid Derivatives from the Deep-Sea-Derived Fungus Lecanicillium fusisporum” (Marine Drugs, 2022) one finds EC50 data, which are given here for nine molecules.

One test deals with NO production in LPS-induced RAW264.7 cells.
Assay: not given
Set-up: method as in PMID 24016057, PMID 27976895. To be noted: read-out: EC50, inhibition of NO production; cited from earlier work.
Take `C/C=C/C1=CC=C/C(=C2\C(=O)CNC2=O)O1` [Vermelhotin]: the concentration giving a half-maximal response (EC50) was 5.35 µM.

As to pseurotin G, the 50% effective concentration (EC50) is 57 µM.

In the case of pseurotin A3, the EC50 is 34.5 µM.

The subject of another test is NF-κB. Nature of the test: NF-κB luciferase reporter assay in LPS-induced RAW264.7 cells. Type of test: cell-based. To be noted: LPS induced RAW264.7 cells stably transfected with NF-κB luciferase reporter; treated 4 h, then LPS 100 ng/mL for 6 h; read-out: EC50, inhibition of NF-κB production. The protocol: The effects of 1–8 on LPS-induced NF-κB luciferase activity were detected by luciferase reporter gene assay as described earlier. Briefly, RAW264.7 cells, stably transfected with a NF-κB luciferase reporter construct, were treated with 1–8 (30 μM) and BAY11-7082 (NF-κB inhibitor, 5 μM) for 4 h, followed by stimulation with LPS (100 ng/mL^−1) for 6 h. The luciferase activity was determined using the luciferase assay system (Promega, Madison, WI, USA). The dose-dependent effects of 1–8 and BAY11-7082 on LPS induced NF-κB luciferase activity were detected by the same assay.
For `Cc1ccc(S(=O)(=O)/C=C/C#N)cc1` [BAY11-7082, reference compound], the 50% effective concentration (EC50) worked out at 1.5 ± 1.4 µM.

As to `CC(C)=C1NC(=O)C(O)(C2C=CCC(C)O2)C1=O` (stereo not drawn) [Compound 2, Lecanicilliumin B], the EC50 came to 25.8 ± 1.3 µM.

As for `COC1CC(C2(O)C(=O)NC(=C(C)C)C2=O)CC(C)O1` (stereo not drawn) [Compound 6, Lecanicilliumin F], the 50% effective concentration (EC50) is 24.7 ± 1.19 µM.

The test is the same for the next values; noted with them: Mus musculus, RAW264.7, LPS induced RAW264.7 cells stably transfected with NF-κB luciferase reporter; treated 4 h, then LPS 100 ng/mL for 6 h; read-out: EC50, inhibition of NF-κB production.
Consider `COC1CC(C2(O)C(=O)NC(=C(C)C)C2=O)CC(C)O1` (stereo not drawn) [Compound 5, Lecanicilliumin E], for which the EC50 amounted to 23.1 ± 1.26 µM.

Turning to `CC(C)=C1NC(=O)C(O)(C2C=CCC(C)O2)C1=O` (stereo not drawn) [Compound 1, Lecanicilliumin A], the EC50 is 18.5 ± 1.21 µM.

For `CC(C)=C1NC(=O)C(O)(CC=CCC(C)O)C1=O` (stereo not drawn) [Compound 7, Lecanicilliumin G], the EC50 worked out at 26.5 ± 1.12 µM.
